Species on record: Oryctolagus cuniculus
Assay: Inhibitory activity against U-46,619-induced rabbit platelet aggregation was determined
Format: functional

SMILES | IC50 (Oryctolagus cuniculus) | IC50
O=C(O)COc1c(F)cc(SCCNS(=O)(=O)c2ccc(Cl)cc2)cc1F | 0.34 µM | 
O=C(O)COc1c(F)cc([S+]([O-])CCNS(=O)(=O)c2ccc(Cl)cc2)cc1F (racemic; form 1) |  | ≥ 1 µM
O=C(O)COc1c(F)cc([S+]([O-])CCNS(=O)(=O)c2ccc(Cl)cc2)cc1F (racemic; form 2) |  | 18.9 µM
O=C(O)COc1c(F)cc([S+]([O-])CCNS(=O)(=O)c2ccc(Cl)cc2)cc1F (stereo in doubt; (-/-)4b) |  | 13.3 µM

Source: ChEMBL document CHEMBL1130537, “Asymmetric synthesis of the sulfoxide metabolite of ON-579 by the kagan protocol” (Bioorg Med Chem Lett, 1997)
